Test results: US10597388B2, “Pyridazinone herbicides” (FMC CORPORATION, priority 2014, dated 2020)

How the values were obtained:
Assay type in all cases: in vivo
[1] = test system: pigweed (Amaranthus retroflexus); test: Test A greenhouse herbicide test, pre- and postemergence
In short: (§1)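 Seeds sown in loam–sand blend got a preemergence directed soil spray of compound in non-phytotoxic solvent with surfactant. Postemergence treatment was given at 2–10 cm, one- to two-leaf stage. After ~10 d in greenhouse, injury was rated visually vs untreated controls, 0 (no effect) to 100 (complete control).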

[2] = test system: barnyardgrass (Echinochloa crus-galli); test: as above
In short: as §1

[3] = test system: ducksalad (Heteranthera limosa); test: Test B flooded paddy test; details: 250 g ai/ha, Flood; visual rating on scale of 0 to 100 where 0 is no effect and 100 is complete control; 13 to 15 d after treatment
In short: (§2)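 Plants at the 2-leaf stage were flooded to 3 cm above soil, and test compounds were applied directly into the paddy water, which was held at that depth throughout. After 13 to 15 d in a greenhouse, injury was rated visually against untreated controls on a 0–100 scale (0 no effect, 100 complete control).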

[4] = test system: sedge, umbrella (small-flower umbrella sedge, Cyperus difformis); test: Test B flooded paddy test; details: 250 g ai/ha, Flood; visual rating on scale of 0 to 100 where 0 is no effect and 100 is complete control; 13 to 15 d after treatment
In short: as §2

[5] = test system: rice (Oryza sativa); test: Test B flooded paddy test; details: 250 g ai/ha, Flood; visual rating on scale of 0 to 100 where 0 is no effect and 100 is complete control; 13 to 15 d after treatment
In short: as §2

[6] = test system: barnyardgrass (Echinochloa crus-galli); test: Test B flooded paddy test; details: 250 g ai/ha, Flood; visual rating on scale of 0 to 100 where 0 is no effect and 100 is complete control; 13 to 15 d after treatment
In short: as §2

[7] = test system: chickweed (common chickweed, Stellaria media); test: Test C greenhouse herbicide test, postemergence
In short: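 Ratings are visual scores from 0 (no effect) to 100 (complete control), made against controls 13–15 d after treatment. Postemergence sprays were applied in the greenhouse to plants 2–18 cm tall (1- to 4-leaf stage) in peat-moss/vermiculite potting medium.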

[8] = Postemergence, 125 g ai/ha, 0 to 100 scale where 0 is no effect and 100 is complete control
[9] = Postemergence, 500 g ai/ha, 0 to 100 scale, 0 is no effect, 100 is complete control
[10] = Preemergence, 125 g ai/ha, 0 to 100 scale where 0 is no effect and 100 is complete control
[11] = Preemergence, 500 g ai/ha, 0 to 100 scale, 0 no effect, 100 complete control
[12] = Postemergence, 31 g ai/ha, 0 to 100 scale (0 no effect, 100 complete control)
[13] = Postemergence, 125 g ai/ha, scale 0 to 100, 0 is no effect, 100 is complete control
[14] = Postemergence, 250 g ai/ha, scale 0 to 100, 0 no effect, 100 complete control, 13 to 15 d
[15] = postemergence, 62 g ai/ha, scale 0 to 100, 0 no effect, 100 complete control
[16] = Preemergence, 500 g ai/ha, 0 to 100 scale where 0 is no effect and 100 is complete control
[17] = Postemergence, 500 g ai/ha, visual rating after approx. 10 d, 0 to 100 scale (0 no effect, 100 complete control)
[18] = Postemergence, 31 g ai/ha, scale 0 to 100 (0 no effect, 100 complete control)

Structure (SMILES) | Plant response rating, Pigweed [1, 8] | Pigweed plant response rating [1, 9] | Pigweed plant response rating [1, 10] | Plant response rating, Barnyardgrass [2, 8] | Barnyardgrass plant response rating [2, 9] | Barnyardgrass plant response rating [2, 10] | Plant response rating, Ducksalad [3] | Plant response rating, Sedge, Umbrella [4] | Plant response rating, Rice [5] | Plant response rating, Barnyardgrass [6] | Chickweed plant response rating [7, 12] | Plant response rating, Chickweed [7, 13] | Plant response rating, Chickweed [7, 14] | Chickweed plant response rating [7, 15] | Plant response rating, Pigweed [1, 16] | Plant response rating, Barnyardgrass [2, 16] | Plant response rating, Pigweed [1, 17] | other results
Cc1cc(C)c2sc(C)c(-c3c(OC(=O)OC(C)C)c(C)nn(C)c3=O)c2c1 [Compound 67] | 20 | 20 | 90 | 20 | 70 | 30 | 0 | 0 | 0 | 0 | 90 | 95 | 95 | 95 | – | – | – | Plant response rating, Pigweed [1, 11]: 100; Plant response rating, Barnyardgrass [2, 11]: 90
CCOC(=O)Oc1c(C)nn(C)c(=O)c1-c1c(C)ccc2ccccc12 [Compound 73] | 100 | 100 | 100 | 40 | 90 | 40 | 0 | 0 | 0 | 0 | 90 | 95 | 95 | 90 | 100 | – | – | Plant response rating, Barnyardgrass [2, 11]: 100
COC(=O)Oc1c(C)nn(C)c(=O)c1-c1c(C)sc2c(C)cc(C)cc12 [Compound 81] | 100 | 100 | 100 | 30 | 90 | 90 | 70 | 80 | 60 | 60 | 90 | 95 | 95 | 90 | 100 | – | – | Plant response rating, Barnyardgrass [2, 11]: 100
CCOC(=O)Oc1c(C)nn(C)c(=O)c1-c1c(C)sc2ccc(C)cc12 [Compound 82] | 60 | 80 | 100 | 30 | 50 | 40 | 0 | 0 | 0 | 0 | 90 | 90 | 98 | 90 | 100 | 70 | – | –
CCOC(=O)Oc1c(C)nn(C)c(=O)c1-c1c(C)sc2c(C)cc(C)cc12 [Compound 83] | 100 | 100 | 100 | 40 | 90 | 70 | 70 | 90 | 30 | 60 | 90 | 95 | 100 | 95 | 100 | 100 | – | –
Cc1cc(C)c2sc(C)c(-c3c(OC(=O)OCCCl)c(C)nn(C)c3=O)c2c1 [Compound 85] | 90 | 100 | 100 | 30 | 80 | 70 | 50 | 80 | 50 | 50 | 90 | 95 | 100 | 95 | 100 | 100 | – | –
C#CCOC(=O)Oc1c(C)nn(C)c(=O)c1-c1c(C)sc2ccc(C)cc12 [Compound 87] | 80 | 90 | 100 | 40 | 80 | 50 | 0 | 0 | 0 | 0 | 90 | 95 | 98 | 90 | 100 | 80 | – | –
CC(=O)Oc1c(C#N)nn(C)c(=O)c1-c1c(C)ccc2ccccc12 [Compound 98] | 100 | – | 100 | 90 | 90 | 40 | 75 | 60 | 30 | 45 | 95 | 100 | 100 | 100 | 100 | 100 | 100 | –
COc1nn(C)c(=O)c(-c2c(C)sc3ccc(Cl)cc23)c1O [Compound 100] | 80 | – | 100 | 30 | 30 | 20 | 0 | 0 | 0 | 0 | 90 | 95 | 95 | 90 | 100 | 20 | 90 | –
CCC(=O)Oc1c(Cl)nn(C)c(=O)c1-c1c(C)sc2ccc(Cl)cc12 [Compound 111] | 100 | – | 90 | 40 | – | 70 | 75 | 75 | 0 | 0 | – | 100 | 98 | 98 | 100 | 100 | 100 | Plant response rating, Barnyardgrass [2, 17]: 90; Plant response rating, Chickweed [7, 18]: 95
Cc1sc2ccc(Cl)cc2c1-c1c(OS(C)(=O)=O)c(Cl)nn(C)c1=O [Compound 114] | 90 | – | 100 | 20 | – | 30 | 50 | 70 | 0 | 0 | – | 98 | 98 | 95 | 100 | 80 | 90 | Plant response rating, Barnyardgrass [2, 17]: 90; Plant response rating, Chickweed [7, 18]: 90
